# From US20120214862A1, “MODULATION OF FACTOR 7 EXPRESSION” (ISIS Pharmaceuticals, Inc., priority 2009, published 2012)
# In the oligonucleotide strings, read from the 5' end, every base follows the letter of its sugar. An asterisk marks phosphorothioate; unmarked linkages are phosphodiester. Other units and linkages are bracketed, terminal groups are in braces. A string of capitals states the bases alone. e = 2'-O-(2-methoxyethyl) (MOE); [5mC] = 5-methylcytosine; d = 2'-deoxy (DNA)
# Tested on: human Factor 7 mRNA
# Test: Antisense inhibition of human Factor 7 mRNA in HepB3 cells, lipofectin, 50 nM, real-time RT-PCR
# Type: cell-based
# Conditions: Example 4; HepB3 cells, lipofectin, 50 nM, ~24 h, relative to untreated control
# How it was run: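 HepB3 cells were transfected by lipofectin with 50 nM antisense oligonucleotide and harvested after about 24 h. Factor 7 mRNA was measured by real-time RT-PCR (primer probe set RTS 2927 in some runs), normalized to RIBOGREEN total RNA, and reported as percent inhibition versus untreated control.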
row,Substance,% Inhibition (human Factor 7 mRNA)
1,422120 (antisense e[5mC]*eG*e[5mC]*eG*eG*dA*dA*dG*dA*dA*dG*dG*dG*dA*d[5mC]*eG*eG*eA*eA*eG) [compound 422120],40%
2,422121 (antisense eG*e[5mC]*eG*e[5mC]*eG*dG*dA*dA*dG*dA*dA*dG*dG*dG*dA*e[5mC]*eG*eG*eA*eA) [compound 422121],43%
3,422122 (antisense eA*eG*e[5mC]*eG*e[5mC]*dG*dG*dA*dA*dG*dA*dA*dG*dG*dG*eA*e[5mC]*eG*eG*eA) [compound 422122],24%
4,422123 (antisense eG*eA*eG*e[5mC]*eG*d[5mC]*dG*dG*dA*dA*dG*dA*dA*dG*dG*eG*eA*e[5mC]*eG*eG) [compound 422123],16%
5,422124 (antisense eT*eG*eA*eG*e[5mC]*dG*d[5mC]*dG*dG*dA*dA*dG*dA*dA*dG*eG*eG*eA*e[5mC]*eG) [compound 422124],0%
6,422125 (antisense e[5mC]*eT*eG*eA*eG*d[5mC]*dG*d[5mC]*dG*dG*dA*dA*dG*dA*dA*eG*eG*eG*eA*e[5mC]) [compound 422125],8%
7,422126 (antisense eA*e[5mC]*eT*eG*eA*dG*d[5mC]*dG*d[5mC]*dG*dG*dA*dA*dG*dA*eA*eG*eG*eG*eA) [compound 422126],22%
8,422127 (antisense eT*eA*e[5mC]*eT*eG*dA*dG*d[5mC]*dG*d[5mC]*dG*dG*dA*dA*dG*eA*eA*eG*eG*eG) [compound 422127],17%
9,422128 (antisense eT*eT*eA*e[5mC]*eT*dG*dA*dG*d[5mC]*dG*d[5mC]*dG*dG*dA*dA*eG*eA*eA*eG*eG) [compound 422128],27%
10,422129 (antisense eG*eT*eT*eA*e[5mC]*dT*dG*dA*dG*d[5mC]*dG*d[5mC]*dG*dG*dA*eA*eG*eA*eA*eG) [compound 422129],45%

# Same assay, conditions: Example 6 microwalk, nucleobases 15098 to 15122 of SEQ ID NO: 1; HepB3, lipofectin, 50 nM, ~24 h
row,Substance,% Inhibition (human Factor 7 mRNA)
1,422134 (antisense eG*e[5mC]*eA*e[5mC]*eA*d[5mC]*dA*dT*dG*dG*dA*dG*dT*d[5mC]*dA*eG*e[5mC]*eA*eT*e[5mC]) [compound 422134],67%
2,422135 (antisense eA*eG*e[5mC]*eA*e[5mC]*dA*d[5mC]*dA*dT*dG*dG*dA*dG*dT*d[5mC]*eA*eG*e[5mC]*eA*eT) [compound 422135],53%
3,422136 (antisense e[5mC]*eA*eG*e[5mC]*eA*d[5mC]*dA*d[5mC]*dA*dT*dG*dG*dA*dG*dT*e[5mC]*eA*eG*e[5mC]*eA) [compound 422136],57%
4,422137 (antisense eA*e[5mC]*eA*eG*e[5mC]*dA*d[5mC]*dA*d[5mC]*dA*dT*dG*dG*dA*dG*eT*e[5mC]*eA*eG*e[5mC]) [compound 422137],45%

# Same assay, conditions: HepB3 cells; gapmers (5-10-5, 3-14-3, 2-13-5 MOE) targeted to nucleobases 4868 to 4899 of SEQ ID NO: 1
row,Substance,% Inhibition of human Factor 7 mRNA levels
1,422138 (antisense eT*e[5mC]*eT*eG*e[5mC]*dA*dG*dG*dA*dG*d[5mC]*dG*dG*d[5mC]*d[5mC]*eT*eA*eA*eA*eT) [compound 422138],70%
2,422139 (antisense eT*eT*e[5mC]*eT*eG*d[5mC]*dA*dG*dG*dA*dG*d[5mC]*dG*dG*d[5mC]*e[5mC]*eT*eA*eA*eA) [compound 422139],66%
3,422141 (antisense eA*eG*eT*eT*e[5mC]*dT*dG*d[5mC]*dA*dG*dG*dA*dG*d[5mC]*dG*eG*e[5mC]*e[5mC]*eT*eA) [compound 422141],64%
4,422143 (antisense e[5mC]*e[5mC]*eG*eA*eG*dT*dT*d[5mC]*dT*dG*d[5mC]*dA*dG*dG*dA*eG*e[5mC]*eG*eG*e[5mC]) [compound 422143],70%
5,422144 (antisense e[5mC]*e[5mC]*e[5mC]*eG*eA*dG*dT*dT*d[5mC]*dT*dG*d[5mC]*dA*dG*dG*eA*eG*e[5mC]*eG*eG) [compound 422144],58%
6,422145 (antisense eG*e[5mC]*e[5mC]*e[5mC]*eG*dA*dG*dT*dT*d[5mC]*dT*dG*d[5mC]*dA*dG*eG*eA*eG*e[5mC]*eG) [compound 422145],57%
7,422146 (antisense eA*eG*e[5mC]*e[5mC]*e[5mC]*dG*dA*dG*dT*dT*d[5mC]*dT*dG*d[5mC]*dA*eG*eG*eA*eG*e[5mC]) [compound 422146],58%
8,422147 (antisense eG*eA*eG*e[5mC]*e[5mC]*d[5mC]*dG*dA*dG*dT*dT*d[5mC]*dT*dG*d[5mC]*eA*eG*eG*eA*eG) [compound 422147],64%
9,422148 (antisense eG*eG*eA*eG*e[5mC]*d[5mC]*d[5mC]*dG*dA*dG*dT*dT*d[5mC]*dT*dG*e[5mC]*eA*eG*eG*eA) [compound 422148],57%

# Same assay, conditions: HepB3 cells; gapmers targeted to nucleobases 11830 to 11869 of SEQ ID NO: 1 (Table 9)
row,Substance,% Inhibition of human Factor 7 mRNA levels
1,422154 (antisense eT*e[5mC]*eA*dG*dG*dG*d[5mC]*dT*dG*dG*dT*dT*dT*dT*dG*dG*dA*eG*eG*eA) [compound 422154],31%
2,422155 (antisense eG*eT*e[5mC]*dA*dG*dG*dG*d[5mC]*dT*dG*dG*dT*dT*dT*dT*dG*dG*eA*eG*eG) [compound 422155],34%
3,422156 (antisense eG*eG*eT*d[5mC]*dA*dG*dG*dG*d[5mC]*dT*dG*dG*dT*dT*dT*dT*dG*eG*eA*eG) [compound 422156],38%
4,422157 (antisense eT*eG*eG*dT*d[5mC]*dA*dG*dG*dG*d[5mC]*dT*dG*dG*dT*dT*dT*dT*eG*eG*eA) [compound 422157],49%
5,422158 (antisense eA*eT*eG*dG*dT*d[5mC]*dA*dG*dG*dG*d[5mC]*dT*dG*dG*dT*dT*dT*eT*eG*eG) [compound 422158],49%
6,422159 (antisense eA*eA*eT*dG*dG*dT*d[5mC]*dA*dG*dG*dG*d[5mC]*dT*dG*dG*dT*dT*eT*eT*eG) [compound 422159],45%
7,422160 (antisense e[5mC]*eA*eA*dT*dG*dG*dT*d[5mC]*dA*dG*dG*dG*d[5mC]*dT*dG*dG*dT*eT*eT*eT) [compound 422160],42%
8,422161 (antisense eA*e[5mC]*eA*dA*dT*dG*dG*dT*d[5mC]*dA*dG*dG*dG*d[5mC]*dT*dG*dG*eT*eT*eT) [compound 422161],53%
9,422162 (antisense eG*eA*e[5mC]*dA*dA*dT*dG*dG*dT*d[5mC]*dA*dG*dG*dG*d[5mC]*dT*dG*eG*eT*eT) [compound 422162],59%
10,422163 (antisense eA*eG*eA*d[5mC]*dA*dA*dT*dG*dG*dT*d[5mC]*dA*dG*dG*dG*d[5mC]*dT*eG*eG*eT) [compound 422163],56%
11,422164 (antisense eG*eA*eG*dA*d[5mC]*dA*dA*dT*dG*dG*dT*d[5mC]*dA*dG*dG*dG*d[5mC]*eT*eG*eG) [compound 422164],64%
12,422165 (antisense eG*eG*eA*dG*dA*d[5mC]*dA*dA*dT*dG*dG*dT*d[5mC]*dA*dG*dG*dG*e[5mC]*eT*eG) [compound 422165],57%
13,422166 (antisense eA*eG*eG*dA*dG*dA*d[5mC]*dA*dA*dT*dG*dG*dT*d[5mC]*dA*dG*dG*eG*e[5mC]*eT) [compound 422166],63%
14,422167 (antisense eG*eA*eG*dG*dA*dG*dA*d[5mC]*dA*dA*dT*dG*dG*dT*d[5mC]*dA*dG*eG*eG*e[5mC]) [compound 422167],53%
15,422168 (antisense eT*eG*eA*dG*dG*dA*dG*dA*d[5mC]*dA*dA*dT*dG*dG*dT*d[5mC]*dA*eG*eG*eG) [compound 422168],30%
16,422169 (antisense e[5mC]*eT*eG*dA*dG*dG*dA*dG*dA*d[5mC]*dA*dA*dT*dG*dG*dT*d[5mC]*eA*eG*eG) [compound 422169],56%

# Same assay, conditions: HepB3 cells; gapmers targeted to nucleobases 14707 to 14732 of SEQ ID NO: 1 (Table 11)
row,Substance,% Inhibition of human Factor 7 mRNA levels
1,422131 (antisense eA*eG*e[5mC]*e[5mC]*eT*dG*dA*dG*dG*d[5mC]*d[5mC]*dA*dG*d[5mC]*dA*eG*eA*eT*e[5mC]*eA) [compound 422131],68%
2,422132 (antisense eG*e[5mC]*eA*eG*e[5mC]*d[5mC]*dT*dG*dA*dG*dG*d[5mC]*d[5mC]*dA*dG*e[5mC]*eA*eG*eA*eT) [compound 422132],54%
3,422133 (antisense eA*eG*e[5mC]*eA*eG*d[5mC]*d[5mC]*dT*dG*dA*dG*dG*d[5mC]*d[5mC]*dA*eG*e[5mC]*eA*eG*eA) [compound 422133],65%

# Same assay, conditions: HepB3 cells; gapmers targeted to nucleobases 15188 to 15211 of SEQ ID NO: 1 (Table 13)
row,Substance,% Inhibition of human Factor 7 mRNA levels
1,422149 (antisense e[5mC]*eA*eT*dG*dG*dT*dG*dA*dT*dG*d[5mC]*dT*dT*d[5mC]*dT*dG*dA*eA*eT*eT) [compound 422149],61%
2,422151 (antisense eT*eG*e[5mC]*dA*dT*dG*dG*dT*dG*dA*dT*dG*d[5mC]*dT*dT*d[5mC]*dT*eG*eA*eA) [compound 422151],68%
3,422153 (antisense e[5mC]*eA*eT*dG*d[5mC]*dA*dT*dG*dG*dT*dG*dA*dT*dG*d[5mC]*dT*dT*e[5mC]*eT*eG) [compound 422153],67%
